Source: patent publication US20140106387A1, “METHOD FOR CONTROLLING NAD(P)/NAD(P)H RATIO BY OXIDOREDUCTASE” (MD BIOALPHA CO., LTD., priority 2006, published 2014)

What was measured:
MN9D cells = experiment: intracellular ATP concentration in dopaminergic neuronal cells; type: cell-based; conditions: 5 μM
Description: Dopaminergic (MN9D) and non-dopaminergic (MN9X) neuronal cells were treated with 5 μM pyran-1,2-naphthoquinone and the ATP concentration was periodically measured.

[1] = body weight, dietary intake, fat and tissue histology in C57BL/6 DIO mice; type: in vivo, mouse
Description: The removed tissues were cut into a proper size, fixed in 10% formalin, washed with water, and embedded in paraffin to prepare blocks, according to a conventional method. The thus-prepared blocks were sectioned into a 4 μm thickness and subjected to hematoxylin and eosin (H&E) staining for observation of general changes.
For observation of cellular microstructures, the removed tissues were sliced into a size of 1 mm^3, pre-fixed in 2.5% glutaraldehyde (0.1M PBS, pH 7.4, 4° C.) for 2 to 4 hours, washed, and post-fixed in a 1% osmium tetroxide solution for 2 hours. Then, according to a conventional method, the tissues were dehydrated with serial concentrations of ethanol and the solvent was replaced with propylene oxide. The tissues were embedded in an epoxy resin mixture, and the embedded tissues were subjected to thermal polymerization to prepare blocks. The thus-prepared blocks were sectioned into a thickness of 0.5 to 1 μm using a ultramicrotome and stained with toludine blue. Observation sites were selected under a light microscope and the tissues were ultrasectioned to a thickness of 60 to 70 nm. The ultrasectioned specimens were subjected to dual staining of uranyl acetate and lead citrate and were observed under a transmission electron microscope (H-600, Hitachi, Japan) at an accelerating voltage of 75 kV.
Cryosectioned tissues were sectioned into a thickness of 5 μm, dried in air for 1 hour and reacted in a filtered 0.5% oil red 0 solution for 20 min. The tissue sections were washed with tap water, subjected to double staining with Gill hematoxylin for 20 to 30 sec, water-washed, and observed.
Adipose tissues were sectioned into a thickness of 3 μm, deparaffinized, exposed to antigens in a citrate buffer under high pressure for 4 min and washed. The mixture was reacted in a 3% hydrogen peroxide solution for 10 min, and the reaction product was washed three times with a TBST solution for 3 min. The product was reacted with primary antibodies (guinea pig, anti-perilipin) against 200-fold diluted perilipin for 1 hour and washed with a TBST solution. Secondary antibodies (donkey anti-guinea pig, cy3-conjugated) were added and reacted with the product for 30 min. The reaction product was washed three times with a TBST solution for 3 min, mounted with Fluormount G and then observed under a fluorescence microscope.
Animals were continuously fed high-fat diet pellets for 3 to 4 weeks, thereby establishing DIO mice. Mice were raised in a breeding room with a 12 h/12 h light/dark D) cycle. Animals were divided into three groups, i.e., a group with administration of physiological saline (n=3), a group with administration of a vehicle (n=5) and a group with administration of 50 mg/kg of a candidate compound (n=7). Samples were orally administered to animals every day. On Days 7, 28 and 56, each tissue was removed, frozen in liquid nitrogen, and stored at […] for short and long periods of time.
All experimental animal procedures were performed according to a guideline of Institutional Animal Care and Use Committee, Chungnam National University School of Medicine. OLETF rats were purchased from Otsuka Research Institute. Male ob/ob and C57BL/6 mice were purchased from Jackson Laboratory. Animals were housed in a breeding room maintained at a constant temperature of […] and a 12 h/12 h light/dark (L/D) cycle. 4-week-old C57BL/6 male mice were fed ad libitum high fat diet (HFD, 24% (w/w) and 45% calories as fat, Research Diets Inc., New Brunswick, N.J. 08901, US) for 7 weeks. Mouse groups were divided into an untreated group, a vehicle-treated group (calcium silicate), a pair-fed group and a candidate compound-treated group (calcium silicate-coated […] nanoparticles). Body weight and dietary intake of animals were daily measured. Upon completion of experiments, some mice of each group were anesthetized and received MRI examinations. The remaining mice of the groups were anatomized and tissue weight thereof was measured. […]

[2] = Respiratory Quotient and indirect calorimetry; type: in vivo, mouse
Description: O2 consumption of animals was recorded by a known method. For indirect calorimetry, mice were individually housed in calorimetry chambers (Oxymax OPTO-M3 system; Columbus Instruments, Columbus, Ohio). Animals were allowed to acclimate to a new environment for 48 hours prior to the experiment, and amounts of O2 consumption and CO2 production were measured for […] every 30 minutes. Mice were given free access to food and drinking water during the first 24 h period, and animals were given access to drinking water only during the second 24 h period. Blood samples were taken from a heparinized tube, immediately placed on ice, centrifuged and stored at −20[…] for future use. Enzymatic colorimetry was employed for quantification of triglyceride (TG), total cholesterol, free fatty acids, and glucose (Beckman Instruments, CA). Plasma insulin (Linco Research, MO), TNFα (R&D System), adiponectin (Linco Research, MO), resistin (KOMED) and leptin (Linco Research, MO) were quantified by ELISA.
This Example was intended to examine effects of pyran-1,2-naphthoquinone on fat metabolism via measurement of Respiratory Quotient (RQ). Oxygen consumption and carbon dioxide production were measured using an Oxyscan open-circuit indirect calorimeter (AccuScan Instruments, Columbus, Ohio). This apparatus consisted of enclosed acrylic chambers (21×21×21 cm). Fresh air was drawn into each chamber at a rate of 1500 mL/min and then O2 and CO2 were allowed to pass through detectors. The concentrations of the gases were recorded in mL/kg body weight/min. RQ was calculated as the volume of CO2 produced (VCO2) divided by the volume of O2 consumed (VO2). A pyrano-1,2-naphthoquinone-administered group, a vehicle-administered group and a control group were placed in each apparatus, and RQ was measured for 7 hours. For acclimation of the animals to the new environment, mice were placed in the apparatus 2 hours prior to measurement.

CC1(C)CCC2=C(O1)c1ccccc1C(=O)C2=O [βL, 2,2-Dimethyl-3,4-dihydro-2H-benzo[h]chromene-5,6-dione]
intracellular ATP concentration (MN9D cells): decreased
EM of liver tissues ([1]; C57BL/6 DIO mice, 56 days): remarkably decreased fat vacuoles and glycogen stores
accumulated fat in the liver (oil red O staining), diminished compared to control ([1]; C57BL/6 DIO mice, 56 days): ≥ 90%
visceral fat and body weight ([1]; C57BL/6 DIO mice, 56 days): conspicuous decreases
amounts of subcutaneous, mesenteric, perirenal and gonadal fats ([1]; C57BL/6 DIO, first four weeks of 56 days): gradually decreased
number of type 1 myofibers in the soleus muscle ([1]; DIO mice): increased
size of adipocytes, brown adipose tissues (H&E staining, EM) ([1]; Day 56, 50 mg/kg daily oral): remarkably decreased
size of adipocytes, gonadal adipose tissues (perilipin staining) ([1]; Day 56, 50 mg/kg daily oral): remarkably decreased
body weight ([1]; obese mice on high-fat diet, 50 mg/kg daily oral, 56 days): continuous weight loss for 56 days
dietary intake ([1]; obese mice, 50 mg/kg daily oral, 56 days): decreases in dietary intake for the first two weeks
muscle mitochondria (EM) ([1]; βL-treated DIO mice and ob/ob mice): normal morphology and increased numbers of mitochondria
Respiratory Quotient (RQ) ([2]; measured for 7 hours, vs vehicle-administered and control group): significant difference in a RQ value
oxygen consumption (indirect calorimetry) ([2]; βL-treated mice): increases in night-time and day-time oxygen consumption
energy consumption ([2]; βL-treated mice vs control group): higher energy consumption
